Converted amounts (≈) assume the structure as drawn.
Columns and labels:
[1] = test system: T1, Enterococcus faecalis VRE 725 B; assay: organism not typed; parameters: broth microdilution MIC in BHI, Alamar Blue read-out, 37 °C; settings: 24 h
T1 construct: VRE 725B (vanA clinical isolate)
Protocol: The inhibition activity against enterococci was evaluated by the microtitration broth method according to the Clinical and Laboratory Standards Institute with some modifications. The compounds were dissolved in DMSO and serially diluted in Brain Hearth Infusion (BHI) to reach concentrations 256–2 µg/mL. […] The experiment was repeated at least three times. All the investigated compounds were tested on their anti-staphylococcal activity against three clinical isolates of methicillin-resistant Staphylococcus aureus (MRSA) and S. aureus ATCC 29213 as the reference and quality control strain. […] All the compounds were tested against Enterococcus faecalis ATCC 29212 as the reference strain and three isolates from American crows of vanA-carrying vancomycin-resistant E. faecalis (VRE), and the activities, expressed as minimum inhibitory concentrations (MICs), are listed in Table 3.

hCA VII = biological target: T2, hCA VII (Homo sapiens, UniProt P43166); assay: stopped-flow CO2 hydration assay; assay type: biochemical
T2 construct: gene CA7; recombinant
Summary of the method: (§1)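 Recombinant human carbonic anhydrase CO2 hydration was followed by stopped-flow for 10–100 s with 0.2 mM phenol red (557 nm), 20 mM Hepes pH 7.5, 20 mM Na2SO4 and 1.7–17 mM CO2. Enzyme and inhibitor (diluted to 0.005 nM in buffer) were preincubated 15 min at room temperature. Initial rates used at least six traces, with uncatalysed rates subtracted. Ki was fitted by non-linear least squares with Cheng–Prusoff equation, averaged over three or more determinations.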

[2] = test system: T3, Enterococcus faecalis VRE 342 B; assay: organism not typed; parameters: broth microdilution MIC in BHI, Alamar Blue read-out, 37 °C; settings: 24 h
T3 construct: VRE 342 B (vanA clinical isolate)
Protocol: (§2) The inhibition activity against enterococci was evaluated by the microtitration broth method according to the Clinical and Laboratory Standards Institute with some modifications. The compounds were dissolved in DMSO and serially diluted in Brain Hearth Infusion (BHI) to reach concentrations 256–2 µg/mL. […] The experiment was repeated at least three times. All the investigated compounds were tested on their anti-staphylococcal activity against three clinical isolates of methicillin-resistant Staphylococcus aureus (MRSA) and S. aureus ATCC 29213 as the reference and quality control strain.

[3] = test system: T4, Enterococcus faecalis VRE 368; assay: organism not typed; parameters: broth microdilution MIC in BHI, Alamar Blue read-out, 37 °C; settings: 24 h
T4 construct: VRE 368 (vanA clinical isolate)
Protocol: as §2

[4] = test system: T5, E. faecalis ATCC 29212 (EF); assay: microbe, parasite or virus in culture; parameters: broth microdilution MIC in BHI, Alamar Blue read-out, 37 °C; settings: Enterococcus faecalis, ATCC29212, 24 h
T5 construct: ATCC 29212
Protocol: as §2

hCA I [5] = biological target: T6, hCA I (Homo sapiens, UniProt P00915); assay: stopped-flow CO2 hydration assay; assay type: biochemical
T6 construct: gene CA1; recombinant
Summary of the method: as §1

hCA IX = biological target: T7, hCA IX (Homo sapiens, UniProt Q16790); assay: stopped-flow CO2 hydration assay; assay type: biochemical
T7 construct: gene CA9; recombinant
Summary of the method: as §1

hCA II = biological target: T8, hCA II (Homo sapiens, UniProt P00918); assay: stopped-flow CO2 hydration assay; assay type: biochemical
T8 construct: gene CA2; recombinant
Summary of the method: as §1

[6] = stopped-flow CO2 hydration assay; assay type: biochemical, Homo sapiens; settings: read-out: KI (nM) ^a / hCA I
Summary of the method: as §1

hCA I [7] = biological target: T6, hCA I; assay: biochemical; parameters: stopped-flow CO2 hydration assay, phenol red indicator 557 nm, recombinant human CA, 15 min preincubation
Protocol: AnSX.18MV-R Applied Photophysics stopped-flow instrument (Applied Photophysics, Leatherhead, UK) has been used for assaying the CA catalyzed CO2 hydration activity. Phenol red (at a concentration of 0.2 mM) has been used as an indicator, working at the absorbance maximum of 557 nm, with 20 mM Hepes (pH 7.5) as a buffer and 20 mM Na2SO4 (for maintaining constant the ionic strength), following the CA-catalyzed CO2 hydration reaction for a period of 10–100 s. The CO2 concentrations ranged from 1.7 to 17 mM for the determination of the kinetic parameters and inhibition constants. For each inhibitor, at least six traces of the initial 5–10% of the reaction were used for determining the initial velocity. The uncatalyzed rates were determined in the same manner and were subtracted from the total observed rates. Stock solutions of the inhibitor (0.1 mM) were prepared in distilled-deionized water, and dilutions up to 0.005 nM were done thereafter with the assay buffer. Inhibitor and enzyme solutions were preincubated together for 15 min at room temperature prior to assay in order to allow for the formation of the E–I complex. The inhibition constants were obtained by non-linear least-squares methods using PRISM 3 and the ChengPrusoff equation, as reported earlier, and represent the mean from at least three different determinations. All CA isoforms were recombinant ones and were prepared as reported earlier. Errors in the range of 5–10% of the reported value (Mean from three different assays, by stopped-flow technique). The presence of aminobenzenesulfonamide structural moiety in the structure of target compounds 1–44 can cause inhibition activity in these compounds against human carbonic anhydrases. The inhibition of physiologically relevant hCA I and hCA II can lead to various undesirable side effects. […] Compounds 1–44 were evaluated as potential inhibitors of hCA I, hCA II, hCA VII, hCA IX, and hCA XII. The inhibition activities against individual hCAs were determined by methodology based on stopped-flow assay. […]

hCA XII = biological target: T9, hCA XII (Homo sapiens, UniProt O43570); assay: stopped-flow CO2 hydration assay; assay type: biochemical
T9 construct: gene CA12; recombinant
Summary of the method: as §1

T9 sequence (O43570 25-354): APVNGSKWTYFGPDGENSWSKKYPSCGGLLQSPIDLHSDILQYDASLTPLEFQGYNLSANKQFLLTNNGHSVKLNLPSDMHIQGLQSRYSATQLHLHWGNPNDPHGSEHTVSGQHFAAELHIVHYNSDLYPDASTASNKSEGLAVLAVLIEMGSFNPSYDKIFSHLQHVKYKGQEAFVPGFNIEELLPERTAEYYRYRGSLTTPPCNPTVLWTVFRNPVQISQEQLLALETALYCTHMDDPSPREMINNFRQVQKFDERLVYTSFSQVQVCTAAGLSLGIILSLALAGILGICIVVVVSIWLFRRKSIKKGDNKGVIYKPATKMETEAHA
T6 sequence (P00915 2-261): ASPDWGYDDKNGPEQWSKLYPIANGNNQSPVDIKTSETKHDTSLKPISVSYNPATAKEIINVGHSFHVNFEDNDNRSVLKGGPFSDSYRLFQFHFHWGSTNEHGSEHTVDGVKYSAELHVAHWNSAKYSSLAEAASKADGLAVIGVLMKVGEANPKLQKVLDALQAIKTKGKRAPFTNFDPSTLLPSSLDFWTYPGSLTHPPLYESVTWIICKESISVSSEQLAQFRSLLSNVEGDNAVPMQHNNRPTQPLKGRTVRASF
T2 sequence (P43166 whole entry): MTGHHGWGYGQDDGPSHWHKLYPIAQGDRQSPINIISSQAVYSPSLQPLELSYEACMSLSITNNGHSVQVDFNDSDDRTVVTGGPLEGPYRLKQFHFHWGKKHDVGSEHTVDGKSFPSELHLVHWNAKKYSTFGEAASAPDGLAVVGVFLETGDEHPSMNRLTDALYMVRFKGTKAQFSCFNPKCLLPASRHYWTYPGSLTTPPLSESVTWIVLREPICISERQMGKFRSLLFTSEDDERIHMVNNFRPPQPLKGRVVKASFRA

| SMILES | MIC [1] | Ki (hCA VII) | MIC [2] | MIC [3] | MIC [4] | Ki (hCA I [5]) | Ki (hCA IX) | Ki (hCA II) | Ki [6] | Ki (hCA I [7]) | Ki (hCA XII) |
| --- | --- | --- | --- | --- | --- | --- | --- | --- | --- | --- | --- |
| NS(=O)(=O)c1ccc(CCNc2nc(Nc3ccc(O)cc3)nc(Nc3ccc(C(=O)/C=C/c4ccccc4O)cc3)n2)cc1 [compound 24, 24] | 102 µM (≈ 63.6 µg/mL) | 281 nM | 51.3 µM (≈ 32 µg/mL) | 51.3 µM (≈ 32 µg/mL) | 51.3 µM (≈ 32 µg/mL) | 5010 nM | 227 nM | 63.8 nM |  |  |  |
| NS(=O)(=O)c1ccc(CCNc2nc(Nc3ccc(O)cc3)nc(Nc3ccc(C(=O)/C=C/c4ccc(O)cc4)cc3)n2)cc1 [compound 29, (E)-4-[2-({4-({4-[3-(4-Hydroxyphenyl)acryloyl]phenyl}amino)-6-[(4-hydroxyphenyl)amino]-1,3,5-triazin-2-yl}amino)ethyl]benzenesulfonamide] | 51.3 µM (≈ 32 µg/mL) | 88.6 nM | 25.6 µM (≈ 16 µg/mL) | 102 µM (≈ 63.6 µg/mL) | 25.6 µM (≈ 16 µg/mL) | 5810 nM | > 10000 nM | 730 nM |  |  |  |
| NS(=O)(=O)c1ccc(CNc2nc(NCCCO)nc(Nc3ccc(C(=O)/C=C/c4ccccc4)cc3)n2)cc1 [compound 13, 13] | 228 µM (≈ 128 µg/mL) | 95.7 nM | 228 µM (≈ 128 µg/mL) | 114 µM (≈ 63.8 µg/mL) | 228 µM (≈ 128 µg/mL) | 1960 nM | 4630 nM | 277 nM |  |  |  |
| NS(=O)(=O)c1ccc(CCNc2nc(NCC(O)CO)nc(Nc3ccc(C(=O)/C=C/c4ccccc4O)cc3)n2)cc1 (centres unmarked) [compound 23, 23] | 105 µM (≈ 63.6 µg/mL) | 88.7 nM | 52.8 µM (≈ 32 µg/mL) | 52.8 µM (≈ 32 µg/mL) | 52.8 µM (≈ 32 µg/mL) | > 10000 nM |  | 83 nM | > 10000 nM |  |  |
| NS(=O)(=O)c1ccc(CCNc2nc(NCCCO)nc(Nc3ccc(C(=O)/C=C/c4cccc(O)c4)cc3)n2)cc1 [compound 25, (E)-4-[2-({4-({4-[3-(3-Hydroxyphenyl)acryloyl]phenyl}amino)-6-[(3-hydroxypropyl)amino]-1,3,5-triazin-2-yl}amino)ethyl]benzenesulfonamide] | 108 µM (≈ 63.7 µg/mL) | 186 nM | 27.1 µM (≈ 16 µg/mL) | 27.1 µM (≈ 16 µg/mL) | 27.1 µM (≈ 16 µg/mL) | 7490 nM | > 10000 nM | 4130 nM |  |  |  |
| NS(=O)(=O)c1ccc(CCNc2nc(Nc3ccc(O)cc3)nc(Nc3ccc(/C=C/c4ccc(O)cc4)cc3)n2)cc1 [compound 43, 43] | > 429 µM |  | > 429 µM | > 429 µM | 429 µM (≈ 256 µg/mL) |  | 25.7 nM | 4840 nM |  | 4060 nM | 702 nM |
| NS(=O)(=O)c1ccc(CCNc2nc(Nc3ccc(O)cc3)nc(Nc3ccc(C(=O)/C=C/c4cccc(O)c4)cc3)n2)cc1 [compound 26, (E)-4-[2-({4-({4-[3-(3-Hydroxyphenyl)acryloyl]phenyl}amino)-6-[(4-hydroxyphenyl)amino]-1,3,5-triazin-2-yl}amino)ethyl]benzenesulfonamide] | 51.3 µM (≈ 32 µg/mL) | 42.1 nM | 51.3 µM (≈ 32 µg/mL) | 25.6 µM (≈ 16 µg/mL) | 51.3 µM (≈ 32 µg/mL) | 6630 nM | > 10000 nM | 1340 nM |  |  |  |
| NS(=O)(=O)c1ccc(CCNc2nc(NCCCO)nc(Nc3ccc(C(=O)/C=C/c4ccccc4O)cc3)n2)cc1 [compound 22, 22] | 108 µM (≈ 63.7 µg/mL) | 283 nM | 108 µM (≈ 63.7 µg/mL) | 108 µM (≈ 63.7 µg/mL) | 108 µM (≈ 63.7 µg/mL) | 7700 nM | > 10000 nM | 939 nM |  |  |  |
| NS(=O)(=O)c1ccc(CCNc2nc(NCCCO)nc(Nc3ccc(C(=O)/C=C/c4ccc(O)cc4)cc3)n2)cc1 [compound 27, (E)-4-[2-({4-({4-[3-(4-Hydroxyphenyl)akryloyl]phenyl}amino)-6-[(3-hydroxypropyl)amino]-1,3,5-triazin-2-yl}amino)ethyl]benzenesulfonamide] | 434 µM (≈ 256 µg/mL) | 459 nM | > 434 µM | > 434 µM | > 434 µM | 8960 nM | > 10000 nM | 28.8 nM |  |  |  |
| NS(=O)(=O)c1ccc(CCNc2nc(NCc3ccc(S(N)(=O)=O)cc3)nc(Nc3ccc(/C=C/c4ccc(O)cc4)cc3)n2)cc1 [compound 44, (E)-4-{2-[(4-{[4-(4-Hydroxystyryl)phenyl]amino}-6-[(4-sulfamoylbenzyl)amino]-1,3,5-triazin-2-yl)amino]ethyl}benzenesulfonamide] | 380 µM (≈ 256 µg/mL) |  | 190 µM (≈ 128 µg/mL) | > 380 µM | 380 µM (≈ 256 µg/mL) |  | 249 nM | 252 nM |  | 859 nM | 10 nM |
| NS(=O)(=O)c1ccc(CNc2nc(NCCCO)nc(Nc3ccc(C(=O)/C=C/c4ccc(O)cc4)cc3)n2)cc1 [compound 16, (E)-4-[({4-({4-[3-(4-Hydroxyphenyl)acryloyl]phenyl}amino)-6-[(3-hydroxypropyl)amino]-1,3,5-triazin-2-yl}amino)methyl]benzenesulfonamide] | > 444 µM | 201 nM | > 444 µM | > 444 µM | > 444 µM | 800 nM | 161 nM | 36 nM |  |  |  |
| NS(=O)(=O)c1ccc(CCNc2nc(NCCc3ccc(S(N)(=O)=O)cc3)nc(Nc3ccc(/C=C/c4cccc(O)c4)cc3)n2)cc1 [compound 41, (E)-4,4’-{[(6-{[4-(3-Hydroxystyryl)phenyl]amino}-1,3,5-triazin-2,4-diyl)bis(azandiyl)]bis(ethan-2,1-diyl)} benzenesulfonamide] | > 372 µM |  | > 372 µM | > 372 µM | 372 µM (≈ 255 µg/mL) |  | 31.1 nM | 41.4 nM |  | 608 nM | 62.2 nM |
| NS(=O)(=O)c1ccc(CNc2nc(NCCCO)nc(Nc3ccc(C(=O)/C=C/c4ccccc4O)cc3)n2)cc1 [compound 14, 14] | > 444 µM | 180 nM | 111 µM (≈ 63.9 µg/mL) | 111 µM (≈ 63.9 µg/mL) | 111 µM (≈ 63.9 µg/mL) | 5400 nM | 623 nM | 35.4 nM |  |  |  |

Source: paper PMC8745223, “Novel 1,3,5-Triazinyl Aminobenzenesulfonamides Incorporating Aminoalcohol, Aminochalcone and Aminostilbene Structural Motifs as Potent Anti-VRE Agents, and Carbonic Anhydrases I, II, VII, IX, and XII Inhibitors” (International Journal of Molecular Sciences, 2021)
